Source: ChEMBL document CHEMBL5137079, “Structure-Based Design of Xanthine-Benzimidazole Derivatives as Novel and Potent Tryptophan Hydroxylase Inhibitors” (J Med Chem, 2022)
Values after ≈ are worked out from the molar mass of the structure shown.

How the values were obtained:
[1] = Solubility of the compound in PBS at pH 7.4 at upto 200 uM by HPLC-UV analysis; type: physicochemical
[2] = Metabolic stability in rat hepatocytes assessed as half life; type: ADME, cell-based, Hepatocyte
[3] = Solubility of the compound in simulated intestinal fluid at upto 200 uM by HPLC-UV analysis; type: physicochemical
[4] = Solubility of the compound in simulated gastric fluid at upto 200 uM by HPLC-UV analysis; type: physicochemical
[5] = Metabolic stability in human hepatocytes assessed as half life; type: ADME, cell-based, Hepatocyte
[6] = Metabolic stability in rat hepatocytes assessed as intrinsic clearance; type: ADME, cell-based, Hepatocyte; settings: read-out: CLH
[7] = Metabolic stability in human hepatocytes assessed as intrinsic clearance; type: ADME, cell-based, Hepatocyte; settings: read-out: CLH
[8] = AUCinfinity in ICR mouse brain at 50 mg/kg, po administered as single dose measured for 1440 mins by LC-MS/MS analysis; type: ADME, organism-based; parameters: time 1440 min, dose 50 mg/kg, route po
[9] = AUCinfinity in ICR mouse plasma at 50 mg/kg, po administered as single dose measured for 1440 mins by LC-MS/MS analysis; type: ADME, organism-based; parameters: time 1440 min, dose 50 mg/kg, route po

| solubility [1] | half-life [2] | solubility [3] | solubility [4] | half-life [5] | CLint scaled [6] | CLint scaled [7] | AUC(0-inf) [8] | AUC(0-inf) [9] | SMILES |
| --- | --- | --- | --- | --- | --- | --- | --- | --- | --- |
| 5.3 µM (≈ 2.22 µg/mL) | 0.167 h | 176 µM (≈ 73.5 µg/mL) | 195 µM (≈ 81.5 µg/mL) | 0.0833 h |  |  |  |  | CCn1c(=O)[nH]c(=O)c2c1nc(Sc1nc3ccccc3[nH]1)n2Cc1ccccc1 |
| 171 µM (≈ 73.4 µg/mL) | > 1 h | 185 µM (≈ 79.1 µg/mL) | 165 µM (≈ 70.6 µg/mL) | > 1 h | < 115 mL/min/kg | < 115 mL/min/kg |  |  | O=c1[nH]c(=O)n(C2CC2)c2nc(Cc3nc4ccc(O)cc4[nH]3)n(Cc3ccccc3)c12 |
| 11.8 µM (≈ 5.1 µg/mL) | 0.0833 h | 150 µM (≈ 65 µg/mL) | 173 µM (≈ 74.8 µg/mL) | 0.0667 h |  |  |  |  | CCCn1c(=O)[nH]c(=O)c2c1nc(Sc1nc3ccccc3[nH]1)n2Cc1ccccc1 |
| 186 µM (≈ 87.7 µg/mL) | > 1 h | 189 µM (≈ 89.2 µg/mL) | 186 µM (≈ 87.9 µg/mL) | > 1 h | < 115 mL/min/kg | < 115 mL/min/kg |  |  | O=c1[nH]c(=O)n(C2CC2)c2nc(Cc3nc4ccc(OCCO)cc4[nH]3)n(Cc3ccccc3)c12 |
| > 200 µM | > 1 h | 154 µM (≈ 66.4 µg/mL) | 198 µM (≈ 85.4 µg/mL) | 0.533 h | < 115 mL/min/kg |  |  |  | O=c1[nH]c(=O)n(C2CC2)c2nc(Cc3nc4ccc(F)cc4[nH]3)n(Cc3ccccc3)c12 |
| 197 µM (≈ 87.1 µg/mL) | > 1 h | 195 µM (≈ 86.3 µg/mL) | 162 µM (≈ 71.6 µg/mL) | 0.1 h | < 115 mL/min/kg |  |  |  | COc1ccc2nc(Cc3nc4c(c(=O)[nH]c(=O)n4C4CC4)n3Cc3ccccc3)[nH]c2c1 |
| 22.9 µM (≈ 10.5 µg/mL) | > 1 h | 191 µM (≈ 87.3 µg/mL) | 193 µM (≈ 87.9 µg/mL) | > 1 h | < 115 mL/min/kg | < 115 mL/min/kg |  |  | O=c1[nH]c(=O)n(C2CC2)c2nc(Cc3nc4cc5c(cc4[nH]3)OCO5)n(Cc3ccccc3)c12 |
| 186 µM (≈ 82.8 µg/mL) | 1 h | 166 µM (≈ 73.8 µg/mL) | 191 µM (≈ 84.8 µg/mL) | > 1 h |  | < 115 mL/min/kg | 195 ng·h/mL | 7450 ng·h/mL | CCn1c(=O)[nH]c(=O)c2c1nc(Cc1nc3cc4c(cc3[nH]1)OCO4)n2Cc1ccccc1 |
| 172 µM (≈ 94.2 µg/mL) | > 1 h | 116 µM (≈ 63.4 µg/mL) | > 200 µM | > 1 h | < 115 mL/min/kg | < 115 mL/min/kg |  |  | Cn1c(=O)[nH]c(=O)c2c1nc(Sc1nc3cc(NC(=O)CC[C@H](N)C(=O)O)ccc3[nH]1)n2Cc1ccccc1 |
| 154 µM (≈ 67.2 µg/mL) | > 1 h | 196 µM (≈ 85.6 µg/mL) | 196 µM (≈ 85.8 µg/mL) | > 1 h | < 115 mL/min/kg | < 115 mL/min/kg |  |  | N#Cc1ccc2nc(Cc3nc4c(c(=O)[nH]c(=O)n4C4CC4)n3Cc3ccccc3)[nH]c2c1 |
| 197 µM (≈ 92.8 µg/mL) | > 1 h | 195 µM (≈ 91.8 µg/mL) | 198 µM (≈ 93.2 µg/mL) | > 1 h | < 115 mL/min/kg | < 115 mL/min/kg |  |  | COC(=O)c1ccc2nc(Cc3nc4c(c(=O)[nH]c(=O)n4C4CC4)n3Cc3ccccc3)[nH]c2c1 |
| 167 µM (≈ 69 µg/mL) | 0.583 h | 168 µM (≈ 69.2 µg/mL) | 180 µM (≈ 74.1 µg/mL) | 0.1 h |  |  |  |  | O=c1[nH]c(=O)n(C2CC2)c2nc(Cc3nc4ccccc4[nH]3)n(Cc3ccccc3)c12 |
| 181 µM (≈ 72.6 µg/mL) | 1 h | 158 µM (≈ 63.2 µg/mL) | 162 µM (≈ 64.8 µg/mL) | 0.2 h |  |  |  |  | CCn1c(=O)[nH]c(=O)c2c1nc(Cc1nc3ccccc3[nH]1)n2Cc1ccccc1 |
| > 200 µM | > 1 h | 159 µM (≈ 68.5 µg/mL) | 189 µM (≈ 81.3 µg/mL) | > 1 h | < 115 mL/min/kg | < 115 mL/min/kg |  |  | CCCn1c(=O)[nH]c(=O)c2c1nc(Cc1nc3cc(O)ccc3[nH]1)n2Cc1ccccc1 |
